US20250355001A1, “METHOD FOR DETECTING A TAU PROTEIN FRAGMENT IN A SAMPLE” (GTINVENT LIMITED, priority 2022, published 2025)

Target: dGAE aggregates (Homo sapiens, UniProt P10636)
Assay: Epitope occlusion assay: dGAE aggregation with/without LMTM, 423 mAb capture ELISA
Type: biochemical
Details: LMTM 1:5 ratio, 24 h 37 °C
Method: During dGAE aggregation in vitro, scAb binding regions on dGA/dGAE are ‘hidden’ or ‘occluded’ which leads to a loss of immunoreactivity in aggregation samples. Here we have shown the occlusion of binding regions in aggregated dGAE samples and the recovery of immunoreactivity in the presence of LMTM, a tau-aggregation inhibitor. For preparing the aggregates, 10 μl 10 mM DTT was added to 1000 μl 100 μM dGAE and agitated with/without LMTM (1:5 ratio) at 700 rpm for 24 h at 37° C. Following overnight agitation, one third of each sample was kept aside as ‘total’ and the rest was spun down at 16000×g for 30 min and separated into ‘supernatant’ and ‘pellet’. The pellet was then resuspended in half the original volume for further experiments. […] Doubling dilutions of dGAE aggregate ‘total’, ‘supernatant’ and ‘pellet’ samples at 10 μg/ml starting concentration were added to designated wells in doubling dilutions in 1×PBS. dGAE monomer (non-aggregated) was included as assay control. All double dilutions were done in final volumes of 100 μl. This was left to incubate on lab bench for 1 h followed by the addition of test scAbs at 10 μg/ml. Anti-HuCk HRP labelled secondary antibody was added as described previously and ELISA data generated is represented using the graph below.

Sequence of dGAE aggregates (P10636 614-708): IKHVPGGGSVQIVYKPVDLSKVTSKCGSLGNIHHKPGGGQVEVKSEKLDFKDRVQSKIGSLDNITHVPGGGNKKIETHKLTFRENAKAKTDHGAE

Compound: CN(C)c1ccc2c(c1)Sc1cc(N(C)C)ccc1N2.CS(=O)(=O)O.CS(=O)(=O)O [LMTM, reference compound]
- effect on dGAE aggregation: preventing the aggregation event
